The test system of this assay is GFRα1 mRNA in MG-63 and U-2 OS cells. The experiment in a line: Quantitative real-time PCR of GFRα1 mRNA after cisplatin. The note with it: both cell lines; dose and time dependent. Format: cell-based, human. The procedure: FIG. 1. Cisplatin induces GFRα1 expression in osteosarcoma cells. (a-c) Immunoblot analysis of osteosarcoma cell lysates with antibodies specific for GFRα1 and β-actin. (a) MG-63 and U-2 OS cells were treated with doxorubicin (5 μM), cisplatin (20 μM), or methotrexate (1 mM) for 24 hr. Immunoblot analysis of GFRα1 (left) and quantification of GFRα1 expression (right) after treatment of chemotherapeutic agents. (b) MG-63 and U-2 OS cells were treated with different concentrations of cisplatin for 24 hr. (c) MG-63 and U-2 OS cells were treated with cisplatin (20 μM) and collected at the indicated time. (d and e) Quantitative real-time PCR of GFRα1 mRNA expression after cisplatin treatment. Representative images (top) and quantitative analysis (bottom) of GFRα1 mRNA expression. The values are presented as a mean±s.d.m (n=3). ** denotes p<0.05 by t-test. (d) MG-63 and U-2 OS cells were treated with different concentrations of cisplatin for 24 hr. (e) MG-63 and U-2 OS cells were treated with cisplatin (20 μM) and collected at the indicated time.
Quantitative real-time (RT)-PCR (qPCR). Total RNA was collected and isolated from cell lines using the RNeasy system according to the manufacturer's protocol (Qiagen, Hilden, Germany). cDNA was generated from a 30 μl reaction containing total RNA (3 μg), reverse transcriptase and oligo dT primers (Promega, Madison, Wis.). […]
On the technique in general: Real-time PCR tracks product formation cycle by cycle.

For `N.N.[Cl][Pt][Cl]` [cisplatin, Cis-Diamineplatinum(II) dichloride], the “level of GFRα1 mRNA” value is given as “increased”.

The values are drawn from patent publication US20180171411A1, “GFRalpha1 AS A BIOMARKER FOR CISPLATIN-INDUCED CHEMORESISTANCE AND METASTASIS” (THE BOARD OF REGENTS OF THE UNIVERSITY OF TEXAS SYSTEM, priority 2015, published 2018).
